Assay results: patent publication US11096946B2, “Use of a PPAR-δ agonist for reducing loss of muscle strength, muscle mass, or type I muscle fibers in an immobilized limb” (vTv Therapeutics LLC, priority 2013, dated 2021)
Several values for one entry are separate records, joined by “and”; a condition that tells them apart may be missing. Equal values may be shown once. Where a name gives a salt, the structure may show the parent alone.

Tested on: human subjects
Experiment: Repeated measures knee extension strength test (Muscle Strength Test) during and after limb immobilization, placebo-controlled study
Type: in vivo
Details: for Muscle strength, knee extension, Baseline Mean: baseline pre-dose; for Muscle strength, knee extension, LSMean change from baseline, Day 14: Day 14 (brace off); for Muscle strength, knee extension, LSMean change from baseline, Day 29: P 0.2 vs placebo; for Mean Difference Compound 1 vs Placebo, LSMean change in muscle strength, Day 29: P 0.2
Excerpt: A protocol for the experimental evaluation of the impact of a PPARδ agonist on muscle atrophy during and following the end of limb immobilization is provided below. In the protocol, reference to Compound 1 refers to (E)-[4-[3-(4-Fluorophenyl)-3-[4-[3-(morpholin-4-yl)propynyl]phenyl]allyloxy]-2-methyl-phenoxy]acetic acid sodium salt.
A randomized, investigator and subject blind, sponsor open, placebo-controlled study evaluating the possible impact of Compound 1 on the recovery of muscle atrophy from limb immobilization is described. Subjects will be leg immobilized using a knee brace (30 degrees flexion on the left leg to allow driving) and will be provided with walking crutches such that there is no weight bearing on the immobilized leg. Subjects will be enrolled and randomized to receive Compound 1 or placebo (both referenced as Study Drug in this protocol). The study consists of five periods termed SCR (screening period, Day −35 to −3), BL (baseline period: Day −1 to Day 1 [am]), IMM (limb immobilization and treatment with study drug, Day 1 [pm] to Day 14), TRE (treatment with study drug without limb immobilization, Day 15 to Day 29) and REC (no treatment recovery period, Day 29 to Day 42). There will be six testing days during the study: Day 1 (baseline), Day 14 (brace off day), Day 16 (48 hours after brace off), Day 21, Day 29 (last dose) and Day 42 (final study visit). On each testing day, subjects will undergo the combination of several testing procedures in sequential order as listed: 1) Morning activity plus approximately 500-step walk (when domiciled at Clinical Research Unit [CRU]); 2) Blood sampling; 3) Standardized breakfast (Study Drug administration will be immediately before the breakfast except for Day 42); 4) Muscle biopsy; 5) Leg muscle strength tests (MST) and modified physical performance test (PPT); and 6) Magnetic resonance imaging (MRI) of the thigh to evaluate thigh muscle volume/cross-section area (CSA).
Two treatment groups in this study: • a) Treatment group A: Treated with 100 mg of Compound 1 twice daily from Day 1 to Day 29. • b) Treatment group B: Treated with placebo twice daily from Day 1 to Day 29.
The maximal amount of weight that the participant is able to lift for one repetition (1-RM) will be measured on a Hoist multi-station weight machine for the following exercises: leg press, knee extension, knee flexion, and bench press. Isokinetic (Cybex) testing of knee extension/flexion will be done to assess deficiencies in rapid strength recruitment. Subjects will be seated on the testing device and strapped in to prevent the pelvis from sliding forward. The movement arm will be adjusted to the subject's leg length and the weight of the leg will be determined. Isokinetic testing of the knee extensors and flexors will be performed at 0°/s, 60°/s and 180°/s. Four to five repetitions at each mode will be performed with the highest two values used for data analysis. Subjects will be familiarized with these procedures during the screening visit.
An experimental study was conducted to evaluate the impact of Compound 1, a PPARδ agonist, on muscle atrophy during and following the end of limb immobilization in human subjects. Except where specifically noted otherwise below, all methods were conducted as described in the protocol above.
Methods were generally conducted as described in the protocol. The study was designed as a double-blind, randomized, placebo-controlled, parallel study in healthy male subjects. A total of N=24 subjects were randomized. The number of randomized subjects is lower than originally planned. A total of N=21 subjects had data available for statistical analysis.
Multiple imputation statistical methods were used to preserve the intent-to-treat (ITT) principle while coping with invalid and missing data.
Primary analysis was executed as defined in the study protocol and the statistical analysis plan (see protocol described above). […]

Cc1cc(OC/C=C(/c2ccc(F)cc2)c2ccc(C#CCN3CCOCC3)cc2)ccc1OCC(=O)O [Compound 1, (E)-[4-[3-(4-Fluorophenyl)-3-[4-[3-(morpholin-4-yl)propynyl]phenyl]allyloxy]-2-methyl-phenoxy]acetic acid sodium salt]
Change in muscle strength compared to baseline, difference to placebo (14 days following the end of immobilization (i.e., day 28)): no longer significantly different | Muscle strength, knee extension, Baseline Mean (Table 1 primary analysis, multiple imputation for missing and invalid data, n = 10, healthy males, raw data in lbs): 195 | Muscle strength, knee extension, LSMean change from baseline, Day 14 (Table 1 primary analysis, multiple imputation, 100 mg twice daily, n = 10, P 0.012 vs placebo): −2.9 | Mean Difference Compound 1 vs Placebo, LSMean change in muscle strength, Day 14 (Table 1 primary analysis, multiple imputation, P 0.012): 36 | Muscle strength, knee extension, LSMean change from baseline, Day 21 (primary) (Table 1 primary analysis, multiple imputation, 100 mg twice daily, n = 10, P 0.004 vs placebo): 36.8 | Mean Difference Compound 1 vs Placebo, LSMean change in muscle strength, Day 21 (primary) (Table 1 primary analysis, multiple imputation, P 0.004): 36.5 | Muscle strength, knee extension, LSMean change from baseline, Day 29 (Table 1 primary analysis, multiple imputation, 100 mg twice daily, n = 10): 30.4 | Mean Difference Compound 1 vs Placebo, LSMean change in muscle strength, Day 29 (Table 1 primary analysis, multiple imputation): 21.9 | Mean Difference Compound 1 vs Placebo, Baseline mean muscle strength (Table 1 primary analysis, multiple imputation, P 0.3): 19 | Muscle strength, knee extension, Baseline Mean (Table 2 supportive analysis, no imputation, excluding protocol violators, n = 9): 191 lbs | Muscle strength, knee extension, LSMean change from baseline, Day 14 (Table 2 supportive analysis, no imputation, 100 mg twice daily, n = 9, P 0.04 vs placebo): −1.9 lbs | Mean Difference Compound 1 vs Placebo, LSMean change in muscle strength, Day 14 (Table 2 supportive analysis, no imputation, P 0.04): 36.3 lbs | Muscle strength, knee extension, LSMean change from baseline, Day 21 (primary) (Table 2 supportive analysis, no imputation, 100 mg twice daily, n = 9, P 0.048 vs placebo): 31.5 lbs | Mean Difference Compound 1 vs Placebo, LSMean change in muscle strength, Day 21 (primary) (Table 2 supportive analysis, no imputation, P 0.048): 31.3 lbs | Muscle strength, knee extension, LSMean change from baseline, Day 29 (Table 2 supportive analysis, no imputation, 100 mg twice daily, n = 9): 32.5 lbs | Mean Difference Compound 1 vs Placebo, LSMean change in muscle strength, Day 29 (Table 2 supportive analysis, no imputation): 19.4 lbs | Mean Difference Compound 1 vs Placebo, Baseline mean muscle strength (Table 2 supportive analysis, no imputation, P 0.4): 23 lbs | Primary muscle strength variable of analysis vs placebo (human subjects, N=21 with data available): statistically significant superiority over placebo | Rate of loss of muscle strength during immobilization (human subjects, compared to their baseline measurements): reduced to almost zero | Mean change from baseline to day 21 in muscle strength relative to placebo (human subjects, day 21): showed superiority | Muscle atrophy during immobilization (rate of loss of muscle strength relative to placebo) (human subjects, during immobilization): effective in reducing muscle atrophy during immobilization | Atrophy following immobilization (rate of return of muscle strength to baseline relative to placebo) (human subjects, following immobilization): reducing atrophy following immobilization | Maximum muscle strength on the knee extension (KE), raw value, Day 1 (individual Treated subjects A-I, Day 1 baseline, pre-dose, sodium salt): 220.5 Lbs and 145.5 Lbs and 215.5 Lbs and 265.5 Lbs and 123 Lbs and 260.5 Lbs and 168 Lbs and 163 Lbs and 160.5 Lbs | Maximum muscle strength on the knee extension (KE), raw value, Day 14 (individual Treated subjects A-I, Day 14, day brace is removed, 100 mg twice daily, sodium salt): 200.5 Lbs and 195 Lbs and 163 Lbs and 255.5 Lbs and 120.5 Lbs and 225.5 Lbs and 158 Lbs and 185.5 Lbs and 170.5 Lbs | Maximum muscle strength on the knee extension (KE), raw value, Day 21 (individual Treated subjects A-I, Day 21, primary endpoint, 100 mg twice daily, sodium salt): 270.5 Lbs (3×) and 225.5 Lbs and 213 Lbs and 158 Lbs and 183 Lbs and 205.5 Lbs | Maximum muscle strength on the knee extension (KE), raw value, Day 29 (individual Treated subjects A-I, Day 29, final assessment during treatment period, sodium salt): 270.5 Lbs (2×) and 235.5 Lbs and 225.5 Lbs and 213 Lbs and 150.5 Lbs and 183 Lbs and 230.5 Lbs | Maximum muscle strength on the knee extension (KE), raw value, Day 42 (individual Treated subjects A-I, Day 42, safety follow-up after end of treatment, sodium salt): 270.5 Lbs (3×) and 265.5 Lbs and 238 Lbs and 158 Lbs and 183 Lbs and 220.5 Lbs
